The supplement of paper PMC10307832

Columns and labels:
Test in all cases: relative viability (nuclei count vs DMSO), 5 days (fraction); higher = more cells survive
KN-93 = compound: CN(C/C=C/C1=CC=C(C=C1)Cl)CC2=CC=CC=C2N(CCO)S(=O)(=O)C3=CC=C(C=C3)OC [KN-93]
Outline: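 Vehicle-anchored 1536-well plates of lung cancer cell lines, held overnight at 37 °C, were pinned with five library-drug doses (not always all listed) spaced by √10. No medium change followed over the next 5 days, after which the cells were fixed, permeabilised and Hoechst-stained together and imaged at 4×. Nuclei were counted with MetaXpress, and viability is treated-well nuclei over vehicle-well nuclei, taken as a median across plates. Plates passed with control CV below 25% and at least one doubling.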

KN-93 + Trametinib = compound: CN(C/C=C/C1=CC=C(C=C1)Cl)CC2=CC=CC=C2N(CCO)S(=O)(=O)C3=CC=C(C=C3)OC [KN-93] + CC(=O)Nc1cccc(-n2c(=O)n(C3CC3)c(=O)c3c(Nc4ccc(I)cc4F)n(C)c(=O)c(C)c32)c1 [Trametinib] (partner 0.02 µM)
Outline: (§1)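 For relative viability, nuclei counts in treated wells were divided by those in vehicle wells. Lung cancer cell lines had been pin-tool dosed in 1536-well plates the day after seeding and cultured for 5 days, then fixed and stained in one step (final 0.05% Triton X-100, 1% formaldehyde, 1 ug/ml Hoechst) and imaged at 4×. Doses were one drug alone or a fixed anchor-drug dose plus five library-drug doses (not always all listed) in √10 steps, and values are duplicate-plate medians.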

KN-93 + Lapatinib = compound: CN(C/C=C/C1=CC=C(C=C1)Cl)CC2=CC=CC=C2N(CCO)S(=O)(=O)C3=CC=C(C=C3)OC [KN-93] + CS(=O)(=O)CCNCc1ccc(-c2ccc3ncnc(Nc4ccc(OCc5cccc(F)c5)c(Cl)c4)c3c2)o1 [Lapatinib] (partner 2 µM)
Outline: as §1

KN-93 + AZD7762 = compound: CN(C/C=C/C1=CC=C(C=C1)Cl)CC2=CC=CC=C2N(CCO)S(=O)(=O)C3=CC=C(C=C3)OC [KN-93] + NC(=O)Nc1cc(-c2cccc(F)c2)sc1C(=O)N[C@H]1CCCNC1 [AZD7762] (partner 0.2 µM)
Outline: as §1

KN-93 + Vorinostat = compound: CN(C/C=C/C1=CC=C(C=C1)Cl)CC2=CC=CC=C2N(CCO)S(=O)(=O)C3=CC=C(C=C3)OC [KN-93] + O=C(CCCCCCC(=O)Nc1ccccc1)NO [Vorinostat] (partner 1 µM)
Outline: as §1

Cell Line | relative viability (KN-93; 0.08 µM) | relative viability (KN-93; 0.253 µM) | relative viability (KN-93; 2.53 µM) | relative viability (KN-93; 8 µM) | relative viability (KN-93 + Trametinib; first compound 0.08 µM) | relative viability (KN-93 + Trametinib; first compound 0.253 µM) | relative viability (KN-93 + Trametinib; first compound 2.53 µM) | relative viability (KN-93 + Trametinib; first compound 8 µM) | relative viability (KN-93 + Lapatinib; first compound 0.253 µM) | relative viability (KN-93 + Lapatinib; first compound 2.53 µM) | relative viability (KN-93 + Lapatinib; first compound 8 µM) | relative viability (KN-93 + AZD7762; first compound 0.08 µM) | relative viability (KN-93 + AZD7762; first compound 0.253 µM) | relative viability (KN-93 + AZD7762; first compound 2.53 µM) | relative viability (KN-93 + AZD7762; first compound 8 µM) | relative viability (KN-93 + Vorinostat; first compound 0.08 µM) | relative viability (KN-93 + Vorinostat; first compound 0.253 µM) | relative viability (KN-93 + Vorinostat; first compound 2.53 µM) | relative viability (KN-93 + Vorinostat; first compound 8 µM) | relative viability (KN-93 + Lapatinib; first compound 0.08 µM)
BEN | 0.881 | 0.969 | 1.08 | 0.688 | 1.08 | 1.19 | 1.18 | 0.67 | 0.968 | 0.918 | 0.362 | 0.771 | 0.661 | 0.678 | 0.442 | 0.637 | 0.596 | 0.599 | 0.487 | –
NCI-H727 | 1.03 | 0.833 | 1.02 | 0.649 | 0.32 | – | 0.384 | 0.409 | 0.762 | 0.802 | 0.486 | 0.643 | – | 0.627 | 0.471 | 1.05 | – | 1.3 | 1.01 | 0.776
NCI-H1975 | 0.886 | 0.942 | 0.945 | 0.706 | 0.29 | 0.291 | 0.307 | 0.179 | 1.05 | 0.976 | 0.579 | 0.664 | 0.599 | 0.72 | 0.558 | 0.614 | 0.812 | 0.728 | 0.452 | 0.656
NCI-H23 | 0.997 | 1.18 | 1.02 | 0.56 | 0.331 | 0.397 | 0.432 | 0.326 | 1.1 | 1.31 | 0.883 | 0.286 | 0.214 | 0.235 | 0.106 | 0.596 | 0.626 | 0.543 | 0.258 | 1.05
NCI-H2126 | 0.96 | 0.887 | 1.08 | 0.902 | 0.468 | 0.453 | 0.593 | 0.466 | 0.659 | 0.804 | 0.702 | 0.939 | 1.01 | 1.03 | 0.974 | 0.782 | 0.83 | 0.727 | 0.704 | 0.806
PC-3 [JPC-3] | 1 | 1.11 | 1.01 | 0.866 | 0.703 | 0.533 | 0.674 | 0.608 | 0.382 | 0.439 | 0.428 | 0.813 | 0.757 | 0.781 | 0.714 | 0.794 | 0.765 | 0.756 | 0.637 | 0.462
LU99A | 0.953 | 0.951 | 1.01 | 0.74 | 0.603 | 0.626 | 0.496 | 0.431 | 1.21 | 0.797 | 0.89 | 0.31 | 0.323 | 0.38 | 0.336 | 0.282 | 0.48 | 0.535 | 0.343 | 1.16
NCI-H2347 | 1.03 | 1.11 | 1.08 | 0.797 | 0.28 | 0.316 | 0.282 | 0.26 | 0.921 | 1.17 | 0.595 | 0.621 | 0.861 | 0.885 | 0.498 | 0.513 | 0.623 | 0.674 | 0.458 | 0.932
201T | 1.03 | 0.85 | 0.958 | 0.684 | 0.714 | 0.754 | 0.711 | 0.599 | 0.955 | 1.03 | 0.988 | 0.616 | 0.707 | 0.658 | 0.619 | 0.875 | 0.958 | 0.873 | 0.698 | 1.1
CAL-12T | 1.09 | 0.983 | 1.09 | 0.744 | 0.345 | 0.35 | 0.289 | 0.28 | 0.574 | 0.716 | 0.496 | 0.56 | 0.628 | 0.667 | 0.399 | 0.833 | 1.01 | 0.783 | 0.687 | 0.616
NCI-H322M | 0.872 | 0.941 | 0.959 | 0.768 | 0.478 | 0.575 | 0.488 | 0.442 | 0.633 | 0.61 | 0.566 | 0.549 | 0.53 | 0.555 | 0.51 | 0.917 | 0.836 | 0.826 | 0.782 | 0.605
HARA | 0.871 | 0.943 | 0.827 | 0.565 | 0.632 | 0.549 | 0.434 | 0.461 | 0.737 | 0.811 | 0.625 | 0.303 | 0.392 | 0.193 | 0.271 | 0.394 | 0.475 | 0.503 | 0.493 | 0.693
NCI-H650 | 1.01 | 1.1 | 1.11 | 0.598 | 0.933 | 1.08 | 0.998 | 0.794 | 1.04 | 1.29 | 0.615 | 0.984 | 0.996 | 1.23 | 0.978 | 0.495 | 0.422 | 0.544 | 0.346 | 1.19
NCI-H2405 | 1.03 | 1.02 | 1.03 | 0.728 | 0.603 | 0.598 | 0.665 | 0.491 | 1.09 | 1.06 | 0.659 | 0.735 | 0.859 | 0.806 | 0.555 | 1.02 | 1.08 | 0.949 | 0.691 | 1.17
PC-14 | 0.943 | 1.04 | 1.2 | 0.92 | 0.553 | 0.802 | 0.696 | 0.524 | 0.227 | 0.318 | 0.307 | 0.331 | 0.316 | 0.527 | 0.343 | 0.623 | 0.753 | 0.649 | 0.625 | 0.305
